{"source": "paper PMC6916019", "about": "“In vitro anti-malarial efficacy of chalcones: cytotoxicity profile, mechanism of action and their effect on erythrocytes” (Malaria Journal, 2019)", "key": {"[1]": {"tested_on": "P. falciparum chloroquine sensitive strain (MRC-2)", "test": "microbe, parasite or virus in culture", "conditions": "Plasmodium falciparum, 24 h", "procedure": "These strains were perpetuated in vitro in continuous culture according to the method of Trager and Jensen with slight modifications. Briefly, both sensitive and resistant strains of P. falciparum were maintained in A+ erythrocytes in RPMI-1640 medium (having glutamine, but without any sodium bicarbonate) comprising 1.00 g of dextrose, 5.94 g of HEPES buffer, 40.00 mg of gentamycin. Additionally supplemented with 5% sodium bicarbonate and 10% (v/v) inactivated human AB+ serum then incubated in gas mixture of 5% CO2, 5% O2 and 90% N2 at 37 °C. Parasitized erythrocytes at initial 5% haematocrit were suspended in above mentioned culture medium and parasitaemia was regularly checked to maintain level between 2 and 4% with further sub-culturing for parasitaemia beyond 5%. Growth and multiplication of parasite was monitored by microscopy using Giemsa-stained slides.\nTo obtain ring stages of the parasite, the cultures were synchronized using D-sorbitol. The cultures, with majority of ring stages, were treated with equal volume of aqueous 5% D-sorbitol for 5 min and then after centrifugation pellet were suspended in complete medium and fresh erythrocytes synchronized culture with 1% parasitaemia and 5% haematocrit were used for compound concentration response assay.\nThe concentration of each test compound needed to hinder multiplication of parasites by 50% (IC50) against P. falciparum strains were obtained through concentration response assay performed in 96-well sterile tissue culture plates. Synchronized parasite cultures were applied to different doses of each compound. Dilutions were performed in gentamycin-free culture medium, and incubated at 37 °C having gaseous mixture (5% CO2, 5% O2 and 90% N2) supply for 24 h. The results were expressed as IC50 values computed from HN-NonLin Regression analysis, as well as mean percentage inhibition ± standard error examined by thick smear Giemsa stained slides. %ParasiteInhibition29,30=100-TotalnumberofSchizontsintestwells/TotalnumberofSchizontsincontrolwell∗100\nParasite at ring stage was used for compound concentration response assay with parasitaemia of 1% at 5% haematocrit. […] The IC50 and IC90 values of all compounds were determined and the resistance index between the two sensitive and resistant strains was calculated (Table 2). […] The percentage inhibition in schizont maturation was also calculated after incubation of ring stage P. falciparum till 24 h at the same range of drug concentrations (Table 3)."}, "[2]": {"tested_on": "haemozoin (β-haematin) production in P. falciparum cultures", "test": "Haemozoin inhibition assay in P. falciparum cultures", "type": "cell-based, Plasmodium falciparum", "conditions": "drug near IC50 concentration, 48 h, untreated control 547.61 ± 9.52", "procedure": "Briefly, the test cultures were centrifuged for 5–10 min at 1300 rpm to dispose of the culture medium. Infected erythrocyte pellet (mingled of β-haematin and erythrocyte membrane) were exposed to 0.01% saponin lysis for 10 min at 25 °C to lyse erythrocyte to release parasites. […] The haemozoin content was quantified by taking the absorbance at 400 nm and using a standard curve prepared from β-haematin. The amount of haemozoin formed in relation to control was calculated. All assays were performed in triplicate."}, "[3]": {"test": "MTT cytotoxicity / cell viability assay", "conditions": "human", "method": "Cytotoxicity of the compounds on mammalian cells were accomplished employing HeLa cell line (NCCS, Pune) cultured in DMEM supplemented with 10% FBS by the MTT (3-(4,5-dimethylthiazol-2-yl)-2,5-diphenyltetrazolium bromide) microenzymatic method with certain modifications [32]. Briefly, cells (10^4 cells/200 μL/well) were seeded into 96-well flat-bottom sterile tissue culture plates in complete medium. After 24 h of seeding, the test compounds at different dilutions were added and kept for another 24 h in a humidified chamber with 5% CO2 at 37 °C. Twenty microlitres of MTT (5.00 mg/mL in 1XPBS) stock solution were pipetted into each well, mixed and incubated for at least 3–4 h. After incubation, the plates were centrifuged at 1500 rpm for 5 min. The supernatant was disposed cautiously and 100 μL of DMSO were added to each well to lyse the cell and dissolve the insoluble purple formazan product into a coloured solution. Absorbance was taken at 570 nm to determine formazan formation as a measurement of cell viability. Experiments were performed in triplicate."}, "[4]": {"test": "Haemolysis assay on normal erythrocytes", "method": "Briefly, fresh erythrocytes were centrifuged for 5 min at 1600 rpm for at least thrice in PBS and then the remaining pellet was re-suspended in PBS at 2% hematocrit. One hundred microlitres of this suspended pellet was added to 96-well sterile culture plate having test compounds at different desired concentrations. PBS alone (for baseline values) and 0.4% Triton X-100 in PBS (for 100% haemolysis) were employed as controls. After keeping at 37 °C for 3 h, the test samples were centrifuged and the supernatant was used for determination of the haemolytic activity quantified in terms of haemoglobin release as monitored spectrophotometrically by taking absorbance at 415 nm [33]. The experiment was done in triplicate and the mean ± SD was calculated [33, 34]. %Haemolysis=[Absorbanceofsample415nm-Absorbanceofblanksample415nm/Absorbanceofpositivecontrol415nm]∗100"}}, "data": [{"molecule": "CCN(CC)CCCC(C)Nc1ccnc2cc(Cl)ccc12", "note": "(stereo not shown) [CHL, chloroquine, reference compound]", "values": [{"measurement": "inhibition at 6.25 µg/mL", "setting": "[1]; read-out: % Schizont maturation inhibition ± SD (MRC-2)", "value": "88.39 ± 0.71", "unit": "%"}, {"measurement": "IC50", "setting": "[1]; read-out: P. falciparum Chloroquine^s Strain (MRC-2) IC50", "value": 0.17, "unit": "µg/mL"}, {"measurement": "IC90", "setting": "[1]; read-out: P. falciparum Chloroquine^s Strain (MRC-2) IC90", "value": 1.14, "unit": "µg/mL"}, {"measurement": "Amount of haemozoin production", "setting": "[2]", "value": "359.52 ± 2.38", "unit": "ng/mL"}, {"measurement": "Amount of haemozoin production", "setting": "[2]; listed as chloroquine", "value": "359.52 ± 2.38", "unit": "ng/mL"}, {"measurement": "viability at 24 h, 12.5 µg/mL", "setting": "[3]", "value": "58 ± 0.06", "unit": "%"}, {"measurement": "hemolysis at 3 h, 12.5 μg/mL", "setting": "[4]", "value": "0.86 ± 0.001", "unit": "%"}]}]}
